“Also recorded” adds a separate entry of the source.
Molecular target: T1, squalene synthase (Bos taurus, UniProt Q32KR6)
T1 construct: squalene synthase activity present in bovine brain microsome fractions; from tissue; host or cells: bovine brain microsomes (crude)
T1 sequence (Q32KR6 1-417): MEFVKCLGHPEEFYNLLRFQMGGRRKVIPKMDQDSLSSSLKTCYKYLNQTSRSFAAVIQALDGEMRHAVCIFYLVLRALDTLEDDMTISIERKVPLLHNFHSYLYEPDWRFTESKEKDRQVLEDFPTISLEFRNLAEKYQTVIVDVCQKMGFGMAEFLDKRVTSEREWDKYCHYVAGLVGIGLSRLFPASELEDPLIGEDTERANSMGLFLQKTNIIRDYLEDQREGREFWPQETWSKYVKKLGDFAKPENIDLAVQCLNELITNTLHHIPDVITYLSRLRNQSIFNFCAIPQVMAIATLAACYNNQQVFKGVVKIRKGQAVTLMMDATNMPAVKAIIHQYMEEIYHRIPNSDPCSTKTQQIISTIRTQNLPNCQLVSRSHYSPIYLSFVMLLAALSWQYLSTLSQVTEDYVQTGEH
Experiment: Inhibition of squalene synthase activity in bovine brain microsomes
Type: biochemical
Settings: 0.05 mM [^3 H]FPP
Experimental: FIG. 7. Inhibition of Squalene Synthase by AGPP. The initial rates of squalene synthase activity were determined from bovine brain microsomal preparations in the presence of the indicated concentration of unlabeled AGPP (filled squares) or unlabeled FPP (open triangles) under the in vitro conditions described in "Experimental Procedures." Crude bovine brain microsomes and 0.05 mM [^3 H]FPP (105 cpm/pmol) and unlabeled AGPP and FPP were added at the indicated concentrations and incubated for 30 min. at 37° C. The reactions were terminated with 40% (wt/vol) KOH and 95% ethanol. Authentic carrier squalene (20 μg) was added and the reactions extracted with petroleum ether. The amount of labeled lipid formed was measured by scintillation counting. […]
Assay for Squalene Synthase Activity--Initial rates of squalene synthase activity present in bovine brain microsome fractions were assayed as previously described (19) with minor modifications. […] The remaining sample was analyzed on Silica gel G 60 TLC plates by developing with hexane (33). […]
FIG. 7 depicts inhibition of Squalene Synthase by AGPP. The initial rates of squalene synthase activity were determined from bovine brain microsomal preparations in the presence of the indicated concentration of unlabeled AGPP (filled squares) or unlabeled FPP (open triangles) (77). […] The amount of labeled lipid formed was measured by scintillation counting.

C/C(=C\COP(=O)(O)OP(=O)(O)O)CC/C=C(\C)CNc1ccccc1 [AGPP, (E,E)-8-Aniline-3,7-dimethyl-2,6-octadiene pyrophosphate]
inhibition of squalene synthase, in words: does not Inhibit Squalene Synthase Activity; also recorded: far less potent in vitro inhibitor of squalene synthase activity than FPP; also recorded: far less potent in vitro inhibitor of squalene synthase activity than for FTase
IC50 (37° C., 30 min): 1000 µM

Reference: patent US6284910A, “Farnesyl pyrophosphate analogs” (University of Kentucky Research Foundation, priority 1999, dated 2001)
